Patent publication US20070191493A1, “Use of n-alkanols as activators of the cftr channel” (priority 2003, published 2007)

Molecular target: T1, ΔF508 mutated CFTR channel (Homo sapiens, UniProt P13569, DEL508-508)
T1 construct: epithelial cells extracted from respiratory airways of patients suffering from cystic fibrosis (homozygous ΔF508); endogenous in cells; host or cells: JME/CF15 human airway epithelial cells (homozygous ΔF508)
Assay: iodide efflux in JME/CF15 human bronchial epithelial cells from cystic fibrosis patients
Format: cell-based
Settings: JME/CF15 cells
Experimental: The CFTR studies are also carried out on Calu-3 cells (ATCC No. HTB-55), which are human pulmonary epithelial cells endogenously expressing the CFTR channel. These cells are cultured under the same culture conditions as the CHO cells. The study of the mutated CFTR channel is carried out on JME/CF15 cells, which are epithelial cells extracted from respiratory airways of patients suffering from cystic fibrosis (homozygous ΔF508) (Jefferson et al., 1990). These cells therefore express the ΔF508 mutated CFTR channel. These cells are cultured under the same conditions as above, but the culture medium is supplemented with a hormone mixture containing: adenine (180 μM), insulin (5 μg/ml), transferrin (5 μg/ml), hydrocortisone (1.1 μM), triiodothyronine (2 nM), epinephrine (5.5 μM), epidermal growth factor (1.64 nM).
This technique makes it possible to follow the kinetics of exit of the ^125I radioactive iodide. The cells are cultured in 24-well plates with a dilution to 1/10 after passage. On the fourth day of culture, the drugs to be tested are dissolved in solution according to the desired concentration, at 37° C., in medium B, at pH 7.4, containing, in mM: 137 NaCl, 5.36 KCl, 0.8 mM MgCl2, 1.8 mM CaCl2, 5.5 glucose and 10 HEPES-NaOH. The wells are washed 4 times with 500 μl of medium B. The solution is subsequently replaced with 500 μl of loading solution containing 1 μM KI and 0.5 μCi of ^125INa/ml for 30 min. The kinetics of exit of ^125I are determined after having eliminated the loading solution and washed the wells 4 times with 500 μl of medium B. For the ^125I exit kinetics, 500 μl of medium B containing or not containing the molecules to be tested are incubated for 30 sec in the wells and recovered in a hemolysis tube, so as to be replaced with 500 μl of medium B containing or not containing the molecules to be tested. The operation is repeated every 30 s for 2 to 6 min. At the end of the efflux, the intracellular ions are extracted by adding 1 ml of trichloroacetic acid (7.5%) to the cell layer. All the samples are counted in a gamma counter (Kontron). The precipitated proteins are solubilized in 0.1N NaOH and quantified using a calorimetric test.
The tracer contained in the cell layer at the beginning of the efflux is calculated as the sum of the samples and of the extracts counted. The efflux curves are constructed by expressing the percentage of the content remaining in the cell layer (I %) with respect to time. The stimulated or nonstimulated efflux rate constants (k, min^−1) are determined by smoothing the efflux curves to a monoexponential function I %=100*exp(−kt) using a linear regression of the neperian logarithm of the data, k is used to calculate the iodide released into the medium with respect to time. The hypothesis is made that, in the presence of a stimulator, the efflux is the sum of two iodide effluxes occurring in parallel: a basal efflux and a stimulated efflux characterized, respectively, by the constants kb and ks. The total net efflux is then described by the equation It^%=100*(1−exp(−ktt)) where kt is the sum of kb and ks. Finally, ks calculated as kt−kb is used to establish a dose-response relationship for antagonists. The data is expressed as means ±SD, and the t-test is used to determine the significances. […] Y begins at the basal level and progresses to the plateau (Ymax), X is the concentration and the half-effect values (EC are calculated using GraphPad Prism v3.0 (GraphPad software)).

T1 sequence (P13569 with tags, fused parts or gaps DEL508-508): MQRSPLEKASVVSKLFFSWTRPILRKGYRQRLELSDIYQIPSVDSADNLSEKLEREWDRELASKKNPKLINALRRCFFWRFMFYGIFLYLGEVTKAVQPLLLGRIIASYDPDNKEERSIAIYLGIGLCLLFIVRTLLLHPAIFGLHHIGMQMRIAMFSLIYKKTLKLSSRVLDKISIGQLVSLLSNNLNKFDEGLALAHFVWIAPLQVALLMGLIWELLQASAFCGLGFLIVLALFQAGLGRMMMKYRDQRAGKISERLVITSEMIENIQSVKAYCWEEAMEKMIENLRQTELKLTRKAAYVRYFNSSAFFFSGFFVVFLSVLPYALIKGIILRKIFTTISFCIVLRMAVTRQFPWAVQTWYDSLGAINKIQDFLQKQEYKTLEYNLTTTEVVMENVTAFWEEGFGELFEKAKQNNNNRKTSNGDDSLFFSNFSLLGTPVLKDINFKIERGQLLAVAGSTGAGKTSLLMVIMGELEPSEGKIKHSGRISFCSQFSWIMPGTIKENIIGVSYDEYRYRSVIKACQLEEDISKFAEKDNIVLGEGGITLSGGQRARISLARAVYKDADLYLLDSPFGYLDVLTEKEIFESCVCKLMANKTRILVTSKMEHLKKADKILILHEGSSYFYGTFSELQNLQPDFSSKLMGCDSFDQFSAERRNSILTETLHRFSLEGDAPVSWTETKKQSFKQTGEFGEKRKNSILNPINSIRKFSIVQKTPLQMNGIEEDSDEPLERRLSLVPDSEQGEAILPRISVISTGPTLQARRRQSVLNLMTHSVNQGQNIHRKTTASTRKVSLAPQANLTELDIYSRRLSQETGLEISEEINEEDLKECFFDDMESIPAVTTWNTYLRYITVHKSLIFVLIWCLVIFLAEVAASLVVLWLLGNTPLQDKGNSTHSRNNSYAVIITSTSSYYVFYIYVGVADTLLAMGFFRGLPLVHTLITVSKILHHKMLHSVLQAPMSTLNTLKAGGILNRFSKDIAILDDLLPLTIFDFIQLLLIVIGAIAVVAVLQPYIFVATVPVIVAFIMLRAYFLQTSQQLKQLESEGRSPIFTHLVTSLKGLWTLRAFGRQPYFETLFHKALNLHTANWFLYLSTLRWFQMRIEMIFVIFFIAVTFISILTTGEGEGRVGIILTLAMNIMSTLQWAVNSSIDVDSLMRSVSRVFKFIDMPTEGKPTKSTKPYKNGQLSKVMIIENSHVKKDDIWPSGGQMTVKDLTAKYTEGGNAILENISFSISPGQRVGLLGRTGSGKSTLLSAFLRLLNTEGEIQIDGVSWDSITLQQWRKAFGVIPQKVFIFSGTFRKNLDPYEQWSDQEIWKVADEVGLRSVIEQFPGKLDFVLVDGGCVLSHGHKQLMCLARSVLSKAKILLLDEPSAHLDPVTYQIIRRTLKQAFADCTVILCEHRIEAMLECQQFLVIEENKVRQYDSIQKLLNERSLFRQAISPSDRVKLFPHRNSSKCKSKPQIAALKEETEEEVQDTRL

## CCCCCCCCO [octan-1-ol]
  effect on the basal level when the mutated channel is not present at the plasma membrane: has no effect on the basal level
1 mM
  activation of ΔF508 mutated CFTR channel, in words: specifically activates the ΔF508 mutated CFTR channel
octan-1-ol 1 mM
  activation of mutated CFTR-ΔF508 channel as share of maximum activity (10 μM FSK+30 μM genistein = 100%): approximately 50%
